In ChEMBL document CHEMBL6074668 (J Med Chem, 2024):
Activity calls are given as the source filed them. The rule behind the calls is not given here.

What was measured:
Type in all cases: functional, cell-based
[1] = biological target: T1, Kappa-type opioid receptor (Homo sapiens, UniProt P41145); assay: Agonist activity at human kappa opioid receptor expressed in CHO-K1 cells assessed as inhibition of forskolin-stimulated cAMP accumulation at 10 uM by HitHunter assay based luminescence analysis
[2] = biological target: T1, Kappa-type opioid receptor; assay: Agonist activity at human kappa opioid receptor expressed in CHO-K1 cells assessed as inhibition of forskolin-stimulated cAMP accumulation by HitHunter assay based luminescence analysis relative to control
Mu-type opioid receptor [3] = biological target: T2, Mu-type opioid receptor (Homo sapiens, UniProt P35372); assay: Agonist activity at human mu opioid receptor expressed in CHO-K1 cells assessed as inhibition of forskolin-stimulated cAMP accumulation at 10 uM by HitHunter assay based luminescence analysis
Mu-type opioid receptor [4] = biological target: T2, Mu-type opioid receptor; assay: Agonist activity at human mu opioid receptor expressed in CHO-K1 cells assessed as inhibition of forskolin-stimulated cAMP accumulation by HitHunter assay based luminescence analysis relative to control
[5] = biological target: T1, Kappa-type opioid receptor; assay: Agonist activity at human kappa opioid receptor expressed in CHO-K1 cells assessed as inhibition of forskolin-stimulated cAMP accumulation by HitHunter assay based luminescence analysis
[6] = biological target: Delta-type opioid receptor (Homo sapiens) (UniProt P41143); assay: Agonist activity at human delta opioid receptor expressed in CHO-K1 cells assessed as inhibition of forskolin-stimulated cAMP accumulation at <1 uM by HitHunter assay based luminescence analysis
Delta-type opioid receptor (Homo sapiens), sequence (P41143 whole entry): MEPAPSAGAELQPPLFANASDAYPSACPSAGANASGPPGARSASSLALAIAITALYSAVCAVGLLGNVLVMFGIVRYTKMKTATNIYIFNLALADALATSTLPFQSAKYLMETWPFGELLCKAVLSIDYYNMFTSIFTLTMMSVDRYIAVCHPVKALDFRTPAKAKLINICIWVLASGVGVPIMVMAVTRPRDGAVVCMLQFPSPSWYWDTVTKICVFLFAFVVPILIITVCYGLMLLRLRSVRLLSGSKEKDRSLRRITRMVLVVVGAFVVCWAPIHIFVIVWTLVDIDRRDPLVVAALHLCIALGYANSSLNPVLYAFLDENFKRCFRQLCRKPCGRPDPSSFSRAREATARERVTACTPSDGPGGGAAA

T1 sequence (P41145 whole entry): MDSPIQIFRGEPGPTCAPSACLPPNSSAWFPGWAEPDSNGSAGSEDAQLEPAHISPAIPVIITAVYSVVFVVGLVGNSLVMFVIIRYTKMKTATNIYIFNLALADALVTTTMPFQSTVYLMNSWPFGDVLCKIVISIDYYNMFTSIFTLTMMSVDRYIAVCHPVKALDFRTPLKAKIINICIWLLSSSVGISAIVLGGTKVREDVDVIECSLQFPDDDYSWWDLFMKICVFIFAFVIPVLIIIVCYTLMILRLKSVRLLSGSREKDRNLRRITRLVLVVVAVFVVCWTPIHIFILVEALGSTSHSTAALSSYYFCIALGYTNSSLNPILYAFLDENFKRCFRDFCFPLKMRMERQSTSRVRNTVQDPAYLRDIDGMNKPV
T2 sequence (P35372 whole entry): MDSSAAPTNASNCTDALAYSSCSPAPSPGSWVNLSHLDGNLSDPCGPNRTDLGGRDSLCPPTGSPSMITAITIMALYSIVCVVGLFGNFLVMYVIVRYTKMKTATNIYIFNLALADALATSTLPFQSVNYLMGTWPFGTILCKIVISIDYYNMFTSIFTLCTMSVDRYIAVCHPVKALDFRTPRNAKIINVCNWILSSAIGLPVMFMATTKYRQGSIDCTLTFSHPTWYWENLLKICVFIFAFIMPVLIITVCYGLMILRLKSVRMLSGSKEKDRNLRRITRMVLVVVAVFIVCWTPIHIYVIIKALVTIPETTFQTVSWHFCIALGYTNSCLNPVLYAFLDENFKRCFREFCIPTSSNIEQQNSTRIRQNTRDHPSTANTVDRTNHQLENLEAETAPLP

Row | SMILES | Activity [1] | Emax [2] [%] | Activity (Mu-type opioid receptor [3]) | Emax (Mu-type opioid receptor [4]) [%] | EC50 [5] [nM] | Emax ([2]; filed as agonist) [%] | Activity [6] | Emax (Mu-type opioid receptor [4]; filed as agonist) [%]
1 | C=CC[N+]12CC[C@]34C(=C(C(=O)OC)[C@@H](C[C@@H]31)/C(=C\C)C2)Nc1ccccc14 (some centres not stated) | inactive | < 10 | inactive | < 10 |  |  |  | 
2 | C/C=C1/C[N+]2(CC3CC3)CC[C@]34C(=C(C(=O)OC)[C@H]1C[C@@H]32)Nc1ccccc14 (some centres not stated) |  |  | inactive | < 10 | 4700 | 113 |  | 
3 | COC(=O)C1=C2Nc3ccc(Br)cc3[C@@]23CCN2C[C@@](O)([C@@H](C)O)[C@@H]1C[C@H]23 | inactive | < 10 | inactive | < 10 |  |  |  | 
4 | C/C=C1/CN2CC[C@]34C(=C(C(=O)OC)[C@H]1C[C@H]23)Nc1ccc(C#N)cc14 |  |  | inactive | < 10 | 81 | 102 | inactive | 
5 | CC[C@@H]1CN2CC[C@]34C(=C(C(=O)OC)[C@H]1C[C@H]23)Nc1ccccc14 |  |  | inactive | < 10 | 1600 | 99 |  | 
6 | COC(=O)C1=C2Nc3ccccc3[C@@]23CCN2C[C@@](O)(C(C)=O)[C@@H]1C[C@H]23 | inactive | < 10 | inactive | < 10 |  |  |  | 
7 | C/C=C1/C[N+]2(C)CC[C@]34C(=C(C(=O)OC)[C@H]1C[C@@H]32)Nc1ccc(Br)cc14 (some centres not stated) |  |  | inactive | < 10 | 940 | 102 |  | 
8 | C/C=C1/CN2CC[C@]34c5ccccc5N[C@@H]3[C@H](C(=O)OC)[C@H]1C[C@H]24 | inactive | < 10 | inactive | < 10 |  |  |  | 
9 | C/C=C1/C[N+]2(CC3CC3)CC[C@]34C(=C(C(=O)OC)[C@H]1C[C@@H]32)Nc1ccc(Br)cc14 (some centres not stated) |  |  | inactive | < 10 |  | 94 |  | 
10 | C/C=C1/CN2CC[C@]34C(=C(C(=O)OC)[C@H]1C[C@H]23)Nc1ccc(-c2ccccc2)cc14 |  |  |  |  |  | 101 | inactive | 106
11 | C/C=C1/C[N+]2(CCC)CC[C@]34C(=C(C(=O)OC)[C@H]1C[C@@H]32)Nc1ccccc14 (some centres not stated) | inactive | < 10 | inactive | < 10 |  |  |  | 
12 | C/C=C1/C[N+]2(C)CC[C@]34C(=C(C(=O)OC)[C@H]1C[C@@H]32)Nc1ccccc14 (some centres not stated) | inactive | < 10 | inactive | < 10 |  |  |  | 
13 | CC[C@@H]1CN2CC[C@]34c5ccccc5N[C@@H]3[C@H](C(=O)OC)[C@H]1C[C@H]24 | inactive | < 10 | inactive | < 10 |  |  |  | 
14 | C/C=C1/C[N+]2(Cc3ccccc3)CC[C@]34C(=C(C(=O)OC)[C@H]1C[C@@H]32)Nc1ccccc14 (some centres not stated) | inactive | < 10 |  |  |  |  |  | 112
15 | C=CC[N+]12CC[C@]34C(=C(C(=O)OC)[C@@H](C[C@@H]31)/C(=C\C)C2)Nc1ccc(Br)cc14 (some centres not stated) |  |  | inactive | < 10 | 650 | 100 |  | 
16 | C/C=C1/CN2CC[C@]34C(=C(C(=O)OC)[C@H]1C[C@H]23)Nc1ccc(-c2ccsc2)cc14 |  |  |  |  |  | 104 | inactive | 107
17 | C/C=C1/CN2CC[C@]34c5cc(I)ccc5NC3C(C(=O)OC)[C@H]1C[C@H]24 (some centres not stated) |  |  | inactive | < 10 | 24 | 100 | inactive | 
18 | COC(=O)C1=C2Nc3ccccc3[C@@]23CCN2C[C@@](O)([C@@H](C)O)[C@@H]1C[C@H]23 | inactive | < 10 | inactive | < 10 |  |  |  | 
19 | C/C=C1/CN2CC[C@]34c5cc(Br)ccc5NC3C(C(=O)OC)[C@H]1C[C@H]24 (some centres not stated) |  |  |  |  |  | 100 |  | 
20 | C[C@@H](NC(=O)[C@@H](N)Cc1ccc(O)cc1)C(=O)NCC(=O)N(C)[C@@H](Cc1ccccc1)C(=O)NCCO | inactive |  |  |  |  |  |  | 
